Measured values as given in US20080287374A1, “BREAST CANCER-RESISTANT PROTEIN INHIBITOR” (KABUSHIKI KAISHA YAKULT HONSHA, priority 2003, published 2008).
In brackets after ≈: the same amount, converted by molar mass.

Key:
A549/SN-38-4 cell line = assay: Effect of flavonoid in overcoming anticancer drug (SN-38) resistance of A549/SN-38 cell line; assay type: cell-based, human; details: concentration of flavonoid for 50% reduction of relative resistance value to SN-38, A549/SN-38-4, 48 hours; for EC50: Homo sapiens
Method: The A549 cell line or the A549/SN-38-4 cell line was suspended in 10% FBS/Ham's F-12, and the resultant suspension was inoculated into a 96-well microplate, followed by culturing at 5% CO2 and 37° C. overnight (2×10^3 cells/50 μL/well). Thereafter, a solution of a flavonoid and SN-38 in 10% FBS/Ham's F-12 (25 μL) was added to each of the wells, followed by culturing at 5% CO2 and 37° C. for 48 hours. After completion of culturing, the number of viable cells was counted by use of TetraColor ONE according to the attached instruction manual.

MES-SA/Dx5 cell line = assay: Effect of flavonoid on multidrug (paclitaxel) resistance of MES-SA/Dx5 cell line; assay type: cell-based, human; details: concentration of flavonoid for 50% reduction of relative resistance value to paclitaxel, MES-SA/Dx5 (P-glycoprotein overexpression), 48 hours; for EC50: Homo sapiens, read-out: Resistance overcoming effect EC50
Method: Human uterine cancer MES-SA cell line or MES-SA/Dx5 cell line which had acquired multidrug resistance through overexpression of P-glycoprotein (Cancer Res. 45, 4091-4096 (1985)) was suspended in 10% FBS/DMEM, and the resultant suspension was inoculated into a 96-well microplate, followed by culturing at 5% CO2 and 37° C. overnight (3×10^3 cells/50 μL/well). Thereafter, a solution of a flavonoid and paclitaxel in 10% FBS/DMEM (25 μL) was added to each of the wells, followed by culturing at 5% CO2 and 37° C. for 48 hours. After completion of culturing, the number of viable cells was counted by use of TetraColor ONE according to the attached instruction manual.

SMILES | EC50 (A549/SN-38-4 cell line) | EC50 (MES-SA/Dx5 cell line) | Resistance overcoming effect EC50 (A549/SN-38-4 cell line) | Resistance overcoming effect EC50 (MES-SA/Dx5 cell line)
COc1cc(O)c2c(=O)cc(-c3ccc(O)cc3)oc2c1 [Compound 1-1, 5,4′-Dihydroxy-7-methoxyflavone] | 0.017 µg/mL (≈ 0.0598 µM) | > 1 µg/mL |  | 
COc1cc(-c2cc(=O)c3c(O)cc(O)cc3o2)cc(OC)c1OC [Compound 1-2, 5,7-Dihydroxy-3′,4′,5′-trimethoxyflavone] | 0.048 µg/mL (≈ 0.139 µM) | > 1 µg/mL |  | 
O=c1cc(-c2ccccc2)oc2cc(O)cc(O)c12 [Compound 1-3, 5,7-Dihydroxyflavone] | 0.1 µg/mL (≈ 0.393 µM) | > 1 µg/mL |  | 
COc1ccc(-c2cc(=O)c3ccccc3o2)cc1OC [Compound 1-4, 3′,4′-Dimethoxyflavone] | 0.03 µg/mL (≈ 0.106 µM) | > 1 µg/mL |  | 
COc1cc(N)c(-c2cc(=O)c3c(OC)c(OC)c(OC)c(OC)c3o2)cc1OC [Compound 1-5, 2′-Amino-4′,5,5′,6,7,8-hexamethoxyflavone] | 0.081 µg/mL (≈ 0.194 µM) | > 1 µg/mL |  | 
COc1ccc(-c2cc(=O)c3c(O)c(OC)c(OC)cc3o2)cc1O [Compound 1-6, 3′,5-Dihydroxy-4′,6,7-trimethoxyflavone] | 0.017 µg/mL (≈ 0.0494 µM) | > 1 µg/mL |  | 
O=c1c(O)c(-c2ccc(O)cc2)oc2cc(O)cc(O)c12 [Compound 1-7, 3,4′,5,7-Tetrahydroxyflavone] | 0.13 µg/mL (≈ 0.454 µM) | > 1 µg/mL |  | 
O=c1cc(-c2ccc(O)c(O)c2)oc2cc(O)cc(O)c12 [Compound 1-8, 3′,4′,5,7-Tetrahydroxyflavone] | 0.46 µg/mL (≈ 1.61 µM) | > 1 µg/mL |  | 
O=c1cc(-c2ccc(O)cc2)oc2cc(O)cc(O)c12 [Compound 1-9, 4′,5,7-Trihydroxyflavone] | 0.12 µg/mL (≈ 0.444 µM) | > 1 µg/mL |  | 
O=c1cc(-c2ccc(O)cc2)oc2cc(OC3O[C@H](CO)[C@@H](O)[C@H](O)[C@H]3O)cc(O)c12 (some centres unmarked) [Compound 1-10, 4′,5-Dihydroxyflavone-7-glucoside] |  |  | 0.17 µg/mL | >1.0 µg/mL
COc1cc(-c2oc3cc(O)cc(O)c3c(=O)c2O)ccc1O [Compound 1-11, 3,4′,5,7-Tetrahydroxy-3′-methoxyflavone] | 0.16 µg/mL (≈ 0.506 µM) | > 1 µg/mL |  | 
COc1cc2oc(-c3ccccc3)cc(=O)c2c(O)c1O [Compound 1-12, 5,6-Dihydroxy-7-methoxyflavone] | 0.074 µg/mL (≈ 0.26 µM) | > 1 µg/mL |  | 
COc1ccc(-c2cc(=O)c3c(OC)c(OC)c(OC)cc3o2)cc1O [Compound 1-13, 3′-Hydroxy-4′,5,6,7-tetramethoxyflavone] | 0.11 µg/mL (≈ 0.307 µM) | > 1 µg/mL |  | 
COc1ccc(-c2cc(=O)c3cc(OC)ccc3o2)c(OC)c1 [Compound 1-16, 2′,4′,6-Trimethoxyflavone] | 0.098 µg/mL (≈ 0.314 µM) | > 1 µg/mL |  | 
COc1ccc(-c2oc3ccccc3c(=O)c2OC)cc1 [Compound 1-17, 3,4′-Dimethoxyflavone] | 0.06 µg/mL (≈ 0.213 µM) | > 1 µg/mL |  | 
Cc1ccc(-c2cc(=O)c3cc(Cl)cc(Cl)c3o2)cc1 [Compound 1-18, 6,8-Dichloro-4′-methylflavone] | 0.14 µg/mL (≈ 0.459 µM) | > 1 µg/mL |  | 
COc1cc2oc(-c3ccc(O)cc3)cc(=O)c2c(O)c1OC [Compound 1-19, 5,4′-Dihydroxy-6,7-dimethoxyflavone] | 0.015 µg/mL (≈ 0.0477 µM) | > 1 µg/mL |  | 
COc1cc(-c2cc(=O)c3c(OC)c(OC)c(OC)c(OC)c3o2)c([N+](=O)[O-])cc1OC [Compound 1-20, 2′-Nitro-4′,5,5′,6,7,8-hexamethoxyflavone] | 0.75 µg/mL (≈ 1.68 µM) | > 1 µg/mL |  | 
COc1cccc(-c2cc(=O)c3cc(OC)ccc3o2)c1 [Compound 1-21, 3′,6-Dimethoxyflavone] | 0.52 µg/mL (≈ 1.84 µM) | > 1 µg/mL |  | 
COc1cc(O)c2c(=O)c(OC)c(-c3ccc(O)c(OC)c3)oc2c1 [Compound 1-22, 4′,5-Dihydroxy-3,3′,7-trimethoxyflavone] | 0.046 µg/mL (≈ 0.134 µM) |  |  | 

SMILES | EC50 (A549/SN-38-4 cell line) | EC50 (MES-SA/Dx5 cell line) | Resistance overcoming effect EC50 (A549/SN-38-4 cell line) | Resistance overcoming effect EC50 (MES-SA/Dx5 cell line)
COc1cc(O)c2c(=O)cc(-c3ccc(OC)c(OC)c3)oc2c1 [Compound 1-23, 5-Hydroxy-3′,4′,7-trimethoxyflavone] | 0.007 µg/mL (≈ 0.0213 µM) |  |  | 
COc1ccc(-c2oc3c(OC)c(OC)c(OC)c(OC)c3c(=O)c2OC)cc1OC [Compound 1-24, 3,3′,4′,5,6,7,8-Heptamethoxyflavone] | 0.054 µg/mL (≈ 0.125 µM) |  |  | 
COc1ccc(-c2cc(=O)c3c(OC)c(OC)c(OC)cc3o2)cc1OC [Compound 1-25, 3′,4′,5,6,7-Pentamethoxyflavone] | 0.53 µg/mL (≈ 1.42 µM) |  |  | 
COc1cc2oc(-c3ccc(OC4O[C@H](CO)[C@@H](O)[C@H](O)[C@H]4O)cc3)cc(=O)c2c(O)c1OC (some centres unmarked) [Compound 1-26, 5-Hydroxy-6,7-dimethoxyflavone-4′-glucoside] |  |  | 0.14 µg/mL | 
COc1cc(O)c2c(=O)cc(-c3ccc(OC4O[C@H](CO)[C@@H](O)[C@H](O)[C@H]4O)cc3)oc2c1 (some centres unmarked) [Compound 1-27, 5-Hydroxy-7-methoxyflavone-4′-glucoside] |  |  | 0.042 µg/mL | 
CC(C)=CCc1c(-c2ccc(O)cc2O)oc2c3c(cc(O)c2c1=O)OC(C)(C)C=C3 [Compound 1-28, 4H,8H-Benzo[1,2-b:3,4-b′]dipyran-4-one,2-(2,4-dihydroxyphenyl)-5-hydroxy-8,8-dimethyl-3-(3-methyl-2-butenyl)] |  |  | 2.0 µg/mL | 
COc1cc2oc(-c3ccc(O)cc3O)c(CC=C(C)C)c(=O)c2c(O)c1C=CC(C)C [Compound 1-29, 2′,4′,5-Trihydroxy-7-methoxy-6-(3-methyl-1-butenyl)-3-(3-methyl-2-butenyl)-flavone] | 0.23 µg/mL (≈ 0.527 µM) |  |  | 
COc1ccc(C2CC(=O)c3c(O)cc(O)cc3O2)cc1O (centres unmarked) [Compound 2-1, 3′,5,7-Trihydroxy-4′-methoxyflavanone] | 0.15 µg/mL (≈ 0.496 µM) | > 1 µg/mL |  | 
COc1cc(O)c2c(c1)OC(c1ccc(O)cc1)CC2=O (centres unmarked) [Compound 2-2, 4′,5-Dihydroxy-7-methoxyflavanone] | 0.48 µg/mL (≈ 1.68 µM) | > 1 µg/mL |  | 
CC(C)=CCc1c2c(c(O)c3c1OC(c1ccc(O)cc1)CC3=O)C=CC(C)(C)O2 (centres unmarked) [Compound 2-3, 2H,6H-Benzo[1,2-b:5,4-b′]dipyran-6-one,7,8-dihydro-5-hydroxy-8-(4-hydroxyphenyl)-2,2-dimethyl-10-(3-methyl-2-butenyl)] |  |  | 0.067 µg/mL | 
COc1cc(O)c(C(=O)/C=C/c2ccc(O)cc2)c(OC)c1 [Compound 3-1, 2′,4-Dihydroxy-4′,6′-dimethoxychalcone] | 0.04 µg/mL (≈ 0.133 µM) | > 1 µg/mL |  | 
COc1ccc(/C=C/C(=O)c2ccccc2)cc1OC [Compound 3-2, 3,4-Dimethoxychalcone] | 0.23 µg/mL (≈ 0.857 µM) | > 1 µg/mL |  | 
COc1ccc(/C=C/C(=O)c2ccccc2O)cc1OC [Compound 3-3, 2′-Hydroxy-3,4-dimethoxychalcone] | 0.16 µg/mL (≈ 0.563 µM) | > 1 µg/mL |  | 
CCOc1cc(O)c(C(=O)/C=C/c2ccc(OCC)c(OCC)c2)c(OCC)c1 [Compound 3-4, 2′-Hydroxy-3,4,4′,6′-tetraethoxychalcone] | 0.023 µg/mL (≈ 0.0574 µM) | > 1 µg/mL |  | 
COc1cc(O)c(C(=O)/C=C/c2cc(OC)c(OC)cc2OC)c(OC)c1 [Compound 3-6, 2′-Hydroxy-2,4,4′,5,6′-pentamethoxychalcone] | 0.0074 µg/mL (≈ 0.0198 µM) | > 1 µg/mL |  | 
COc1cc(/C=C/C(=O)c2cc(Br)cc(Cl)c2O)cc(OC)c1OC [Compound 3-7, 5′-Bromo-3′-chloro-2′-hydroxy-3,4,5-trimethoxychalcone] | 0.65 µg/mL (≈ 1.52 µM) | > 1 µg/mL |  | 
COc1ccc(/C=C/C(=O)c2c(O)cc(OC)cc2O)cc1 [Compound 3-8, 2′,6′-Dihydroxy-4,4′-dimethoxychalcone] | 0.79 µg/mL (≈ 2.63 µM) | > 1 µg/mL |  | 
COc1ccc(O)c(C(=O)/C=C/c2cccc(OC)c2OC)c1 [Compound 3-9, 2′-Hydroxy-2,3,5′-trimethoxychalcone] | 0.94 µg/mL (≈ 2.99 µM) | > 1 µg/mL |  | 
CC(C)=CC1Oc2cc(O)ccc2-c2oc3cc(O)c(C=CC(C)C)c(O)c3c(=O)c21 (centres unmarked) [Compound 5-1, 6H,7H-[1]benzopyrano[4,3-b][1]benzopyran-7-one,3,8,10-trihydroxy-9-(3-methyl-1-butenyl)-6-(2-methyl-1-propenyl)] |  |  | 0.18 µg/mL | 
